The values that follow are results of earlier work, collected in paper PMC11007962, “First-in-human study of GFH018, a small molecule inhibitor of transforming growth factor-β receptor I inhibitor, in patients with advanced solid tumors” (BMC Cancer, 2024).

Series [1] deals with advanced HPV-associated malignancies. On the set-up: method as in PMID 33323462. The conditions noted are these: patients with advanced HPV-associated malignancies; comparators are historical data; cited from earlier work.
On the set-up of series [2]: method as in PMID 25488804, PMID 26309397. The conditions noted are these: consecutive regimens; cited from earlier work.

With “nivolumab: historical comparator in HPV-associated malignancies”, the ORR in series [1] is 24%.
For the molecule `Cc1cccc(-c2nn3c(c2-c2ccnc4ccc(C(N)=O)cc24)CCC3)n1` [galunsertib, reference compound], the “cardiac findings in toxicology studies” value in series [2] is on record as “cardiac lesions occur”.
For “pembrolizumab: historical comparator in HPV-associated malignancies”, the ORR in series [1] is reported as 24%.

B1: bintrafusp alfa: bifunctional fusion protein targeting TGF-β and PD-L1 (antibody, chains of the INN, looked up, V domains shown)
VH: EVQLLESGGGLVQPGGSLRLSCAASGFTFSSYIMMWVRQAPGKGLEWVSSIYPSGGITFYADTVKGRFTISRDNSKNTLYLQMNSLRAEDTAVYYCARIKLGTVTTVDYWGQGTLVTVSS
VL: QSALTQPASVSGSPGQSITISCTGTSSDVGGYNYVSWYQQHPGKAPKLMIYDVSNRPSGVSNRFSGSKSGNTASLTISGLQAEDEADYYCSSYTSSSTRVFGTGTKVTVL
Consider B1, for which the ORR in series [1] is given as 35.6%.
